Measured values from patent US9783536B2, “Nitrogen-containing heterocyclic compound or salt thereof” (FUJIFILM Corporation, priority 2013, dated 2017).
Where two headings read alike, the source gives them in different places.

Assays:
[1] = biological target: T1, GST fusion human ERK2 protein (Homo sapiens, UniProt P28482); assay: ERK2 enzyme assay (2); assay type: biochemical; conditions: read-out: ERK2 enzyme inhibitory activity (2)
T1 construct: purchased Carna Biosciences, Inc; host or cells: E. coli expression system
How it was run: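 GST-tagged human ERK2 expressed in E. coli (1.25 nmol/L) was preincubated with compound for 15 min at room temperature in pH 7.5 Hepes buffer with MgCl2, DTT and Brij35. Reaction with FL-Peptide 8 (final 4.25 μmol/L) and ATP (final 1 mmol/L) ran 120 min at 25 °C; EDTA stopped it, and phosphorylated peptide was quantified by mobility-shift separation to derive IC50.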

[2] = biological target: T2, human PI3Kα protein (Homo sapiens, UniProt P42336); assay: PI3Kα enzyme assay (ADP-Glo); assay type: biochemical; conditions: read-out: PI3Kα enzyme inhibitory activity
T2 construct: purchased Carna Biosciences, Inc; host or cells: baculovirus expression system
How it was run: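 Biotinylated human PI3Kα (baculovirus-expressed, 4.5 nmol/L) pre-incubated 15 min with compound in Tris-HCl pH 7.5, MgCl2, BSA; reaction 60 min at 25° C with 50 μmol/L PIP2 and 100 μmol/L ATP final. ADP quantified by ADP-Glo luminescence; IC50 calculated.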

T1 sequence (P28482 whole entry, the tested form may be a part): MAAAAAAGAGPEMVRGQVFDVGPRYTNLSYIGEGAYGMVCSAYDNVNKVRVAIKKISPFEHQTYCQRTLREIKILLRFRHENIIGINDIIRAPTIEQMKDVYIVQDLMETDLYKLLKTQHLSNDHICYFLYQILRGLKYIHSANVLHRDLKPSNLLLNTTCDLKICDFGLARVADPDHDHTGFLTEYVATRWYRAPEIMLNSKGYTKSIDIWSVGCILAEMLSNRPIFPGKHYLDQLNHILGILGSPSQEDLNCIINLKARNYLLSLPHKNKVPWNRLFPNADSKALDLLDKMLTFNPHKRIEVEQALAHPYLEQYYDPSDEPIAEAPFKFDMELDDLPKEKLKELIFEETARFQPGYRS
T2 sequence (P42336 whole entry): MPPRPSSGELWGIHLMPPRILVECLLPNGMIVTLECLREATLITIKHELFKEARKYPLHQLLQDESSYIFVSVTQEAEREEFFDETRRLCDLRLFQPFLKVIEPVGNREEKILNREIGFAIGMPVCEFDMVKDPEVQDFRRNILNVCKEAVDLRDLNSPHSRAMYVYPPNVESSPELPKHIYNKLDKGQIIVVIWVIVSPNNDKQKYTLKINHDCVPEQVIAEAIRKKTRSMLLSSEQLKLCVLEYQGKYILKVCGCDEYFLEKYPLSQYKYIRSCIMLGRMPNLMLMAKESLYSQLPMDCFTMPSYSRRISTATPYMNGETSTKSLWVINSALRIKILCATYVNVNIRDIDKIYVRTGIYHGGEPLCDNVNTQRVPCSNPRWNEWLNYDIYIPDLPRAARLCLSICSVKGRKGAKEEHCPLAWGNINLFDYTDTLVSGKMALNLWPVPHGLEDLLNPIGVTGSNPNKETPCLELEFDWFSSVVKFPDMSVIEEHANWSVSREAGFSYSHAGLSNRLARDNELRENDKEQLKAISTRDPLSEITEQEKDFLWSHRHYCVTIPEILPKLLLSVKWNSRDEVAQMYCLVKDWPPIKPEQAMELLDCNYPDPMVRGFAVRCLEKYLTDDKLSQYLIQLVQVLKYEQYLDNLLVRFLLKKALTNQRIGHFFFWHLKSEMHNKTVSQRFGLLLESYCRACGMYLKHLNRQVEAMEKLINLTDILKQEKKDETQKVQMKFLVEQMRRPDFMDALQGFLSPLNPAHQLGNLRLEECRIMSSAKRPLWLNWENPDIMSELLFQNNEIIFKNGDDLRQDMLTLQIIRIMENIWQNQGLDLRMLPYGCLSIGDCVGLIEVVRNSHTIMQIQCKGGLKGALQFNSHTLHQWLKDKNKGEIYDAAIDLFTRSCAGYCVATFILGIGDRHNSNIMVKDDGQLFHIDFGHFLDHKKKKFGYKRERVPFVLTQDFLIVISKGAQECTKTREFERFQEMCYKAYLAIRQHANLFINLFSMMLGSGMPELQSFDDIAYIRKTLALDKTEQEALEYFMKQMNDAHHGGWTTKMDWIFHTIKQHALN
T2 sequence (P27986 whole entry partner): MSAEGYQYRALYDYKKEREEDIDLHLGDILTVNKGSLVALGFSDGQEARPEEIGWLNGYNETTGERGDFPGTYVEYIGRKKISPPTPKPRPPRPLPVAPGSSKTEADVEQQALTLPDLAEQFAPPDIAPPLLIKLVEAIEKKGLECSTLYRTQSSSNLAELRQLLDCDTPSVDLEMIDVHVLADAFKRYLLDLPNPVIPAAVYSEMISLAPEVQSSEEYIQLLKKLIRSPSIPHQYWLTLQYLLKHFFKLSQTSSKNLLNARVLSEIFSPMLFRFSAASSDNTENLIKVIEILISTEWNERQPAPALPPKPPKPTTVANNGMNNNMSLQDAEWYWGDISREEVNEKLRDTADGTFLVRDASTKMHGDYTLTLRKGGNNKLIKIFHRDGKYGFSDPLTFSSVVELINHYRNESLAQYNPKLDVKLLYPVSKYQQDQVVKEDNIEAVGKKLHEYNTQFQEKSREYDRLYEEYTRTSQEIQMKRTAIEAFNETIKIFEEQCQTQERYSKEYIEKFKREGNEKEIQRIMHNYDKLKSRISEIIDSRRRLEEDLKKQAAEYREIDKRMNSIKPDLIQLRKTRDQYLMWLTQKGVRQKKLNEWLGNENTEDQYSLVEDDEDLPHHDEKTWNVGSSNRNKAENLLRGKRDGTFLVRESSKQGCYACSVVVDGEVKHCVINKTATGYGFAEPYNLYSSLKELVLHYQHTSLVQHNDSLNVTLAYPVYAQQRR

IC50 ([1]; ERK2 enzyme assay (2)) [µM] | IC50 [2] [µM] | IC50 [1] [µM] | Structure (SMILES)
– | < 1 | < 1 | CC(C)c1cnnc(Nc2ccc3ncc(-c4cn(C)nc4N4CCC4)cc3n2)c1 [Example 0932]
< 1 | < 1 | – | COC(CN1CC(F)C1)Cn1cc(-c2cnc3ccc(Nc4cc(C(C)C)cnn4)nc3c2)cn1 (stereo not shown) [Example 0815, 7-(1-(3-(3-Fluoroazetidin-1-yl)-2-methoxypropyl)-1H-pyrazol-4-yl)-N-(5-isopropylpyridazin-3-yl)-1,5-naphthyridine-2-amine]
1 to 10 | 1 to 10 | – | CC(C)c1cnnc(Nc2ccc3ncc(N4CC(OCC(F)(F)F)C4)cc3n2)c1 [Example 0865]
– | < 1 | < 1 | CC(C)c1cnnc(Nc2ccc3ncc(N4CC5CCC(C4)O5)cc3n2)c1 [Example 0903]
1 to 10 | 1 to 10 | – | CC(C)c1cnnc(Nc2ccc3ncc(N4CCC(C(F)(F)F)C4)cc3n2)c1 (stereo not shown) [Example 0896]
< 1 | < 1 | – | CCC(CC)c1cnnc(Nc2ccc3ncc(-c4cn(C)nc4C)cc3n2)c1 [Example 0769]
< 1 | < 1 | – | CC(C)c1cnnc(Nc2ccc3ncc(N4CC(NS(C)(=O)=O)C4)cc3n2)c1 [Example 0867]
1 to 10 | 1 to 10 | – | CC(C)c1cnnc(Nc2ccc3ncc(N4CCC(N5CCCC5)C4)cc3n2)c1 (stereo not shown) [Example 0899]
< 1 | < 1 | – | CC(C)c1cnnc(Nc2ccc3ncc(-c4cn(C)nc4Cc4cccnc4)cc3n2)c1 [Example 0824, N-(5-isopropylpyridazin-3-yl)-7-(1-methyl-3-(pyridin-3-ylmethyl)-1H-pyrazol-4-yl)-1,5-naphthyridine-2-amine]
< 1 | < 1 | – | CCOC(CN1CCOCC1)Cn1cc(-c2cnc3ccc(Nc4cc(C(C)C)cnn4)nc3c2)cn1 (stereo not shown) [Example 0811]
– | < 1 | < 1 | CC(C)c1cnnc(Nc2ccc3ncc(-c4cn(C)nc4COc4cccnn4)cc3n2)c1 [Example 0913, N-(5-isopropylpyridazin-3-yl)-7-(1-methyl-3-((pyridazin-3-yloxy)methyl)-1H-pyrazol-4-yl)-1,5-naphthyridine-2-amine]
1 to 10 | 1 to 10 | – | CC(C)c1cnnc(Nc2ccc3ncc(N4CCN(C)CC4)cc3n2)c1 [Example 0842, N-(5-isopropylpyridazin-3-yl)-7-(4-methylpiperazin-1-yl)-1,5-naphthyridine-2-amine]
1 to 10 | < 1 | – | CC(C)c1cnnc(Nc2ccc3ncc(NC4CCOC4)cc3n2)c1 (stereo not shown) [Example 0890]
< 1 | < 1 | – | CC(C)c1cnnc(Nc2ccc3ncc(-c4cn(C)nc4Cl)cc3n2)c1 [Example 0886, 7-(3-Chloro-1-methyl-1H-pyrazol-4-yl)-N-(5-isopropylpyridazin-3-yl)-1,5-naphthyridine-2-amine]
< 1 | < 1 | – | CC(C)(O)c1cnnc(Nc2ccc3ncc(-c4cnn(CC5CCOCC5)c4)cc3n2)c1 [Example 0783]
1 to 10 | 1 to 10 | – | CC(C)c1cnnc(Nc2ccc3ncccc3n2)c1 [Example 0876]
< 1 | < 1 | – | CC(C)c1cnnc(Nc2ccc3ncc(-c4cn(C)nc4C4CNC4)cc3n2)c1 [Example 0780, 7-(3-(azetidin-3-yl)-1-methyl-1H-pyrazol-4-yl)-N-(5-isopropylpyridazin-3-yl)-1,5-naphthyridine-2-amine]
– | < 1 | < 1 | CC(C)c1cnnc(Nc2ccc3ncc(-c4cnn(C)c4)c(-c4ccncc4)c3n2)c1 [Example 0953, N-(5-isopropylpyridazin-3-yl)-7-(1-methyl-1H-pyrazol-4-yl)-8-(pyridin-4-yl)-1,5-naphthyridine-2-amine]
< 1 | 1 to 10 | – | CC(C)c1cnnc(Nc2ccc3ncc(N4CCC4)cc3n2)c1 [Example 0847, 7-(Azetidin-1-yl)-N-(5-isopropylpyridazin-3-yl)-1,5-naphthyridine-2-amine]
1 to 10 | < 1 | – | CC(C)c1cnnc(Nc2ccc3ncc(-c4cn(C)nc4NCc4cnn(C)c4)cc3n2)c1 [Example 0836]
1 to 10 | 1 to 10 | – | CCCCOC1CN(c2cnc3ccc(Nc4cc(C(C)C)cnn4)nc3c2)C1 [Example 0870]
< 1 | 1 to 10 | – | COC1CCN(c2cnc3ccc(Nc4cc(C(C)C)cnn4)nc3c2)C1 (stereo not shown) [Example 0895]

Further lines, the compound ahead of its results:

Structure (SMILES) | IC50 ([1]; ERK2 enzyme assay (2)) [µM] | IC50 [2] [µM] | IC50 [1] [µM]
Cc1cnnc(Nc2ccc3nccc(-c4cnn(C)c4)c3n2)c1 [Example 0448, 8-(1-Methyl-1H-pyrazol-4-yl)-N-(5-methylpyridazin-3-yl)-1,5-naphthyridine-2-amine] | 1 to 10 | < 1 | –
CCN1CC(OCCn2cc(-c3cnc4ccc(Nc5cc(C(C)C)cnn5)nc4c3)cn2)C1 [Example 0746, 7-(1-(2-((l-Ethylazetidin-3-yl)oxy)ethyl)-1H-pyrazol-4-yl)-N-(5-isopropylpyridazin-3-yl)-1,5-naphthyridine-2-amine] | < 1 | < 1 | –
Cc1nn(C)cc1-c1cnc2ccc(Nc3cc(C(C)(C)O)cnn3)nc2c1 [Example 0547] | < 1 | < 1 | –
CC(C)c1cnnc(Nc2ccc3ncc(-c4cnn(C5CCN(CCO)CC5)c4)cc3n2)c1 [Example 0480, 2-(4-(4-(6-((5-Isopropylpyridazin-3-yl)amino)-1,5-naphthyridin-3-yl)-1H-pyrazol-1-yl)piperidin-1-yl)ethanol] | < 1 | < 1 | –
CC1CN(CCCn2cc(-c3cnc4ccc(Nc5cc(C(C)C)cnn5)nc4c3)cn2)CCO1 (stereo not shown) [Example 0608] | < 1 | < 1 | –
CC(C)c1cnnc(Nc2ccc3ncc(-c4cnn(C[C@@H]5CCC(=O)N5)c4)cc3n2)c1 [Example 0556] | < 1 | < 1 | –
CC(C)c1cnnc(Nc2ccc3ncc(-c4cnn(CC(CN5CCOCC5)OCc5ccccc5)c4)cc3n2)c1 (stereo not shown) [Example 0732] | < 1 | < 1 | –
C=Cc1cnc2ccc(Nc3cc(C(C)C)cnn3)nc2c1 [Example 0638, N-(5-isopropylpyridazin-3-yl)-7-vinyl-1,5-naphthyridine-2-amine] | < 1 | 1 to 10 | –
CC(C)c1cnnc(Nc2ccc3ncc(-c4ccc(O)nc4)cc3n2)c1 [Example 0592] | < 1 | < 1 | –
CC(C)c1cnnc(Nc2ccc3ncc(-c4cnn(CC5CCN(C(=O)N(C)C)CC5)c4)cc3n2)c1 [Example 0529] | < 1 | < 1 | –
CC(=O)N(C)c1cnc2ccc(Nc3cc(C(C)C)cnn3)nc2c1 [Example 0628, N-(6-((5-isopropylpyridazin-3-yl)amino)-1,5-naphthyridin-3-yl)-N-methylacetamide] | < 1 | 10 to 50 | –
Cc1nc(C)c(-c2cnc3ccc(Nc4cc(C(C)C)cnn4)nc3c2)s1 [Example 0574, 7-(2,4-dimethylthiazol-5-yl)-N-(5-isopropylpyridazin-3-yl)-1,5-naphthyridine-2-amine] | < 1 | 1 to 10 | –
CC(C)c1cnnc(Nc2ccc3ncc(-c4cnn(CC(F)CN5CCCC5)c4)cc3n2)c1 (stereo not shown) [Example 0727] | < 1 | < 1 | –
CCC1CN(CCCn2cc(-c3cnc4ccc(Nc5cc(C(C)C)cnn5)nc4c3)cn2)CCO1 (stereo not shown) [Example 0684] | < 1 | < 1 | –
CC(C)c1cnnc(Nc2ccc3ncc(-c4cnn(CC(=O)N5CCCCC5)c4)cc3n2)c1 [Example 0561] | < 1 | < 1 | –
CC(C)Oc1cnnc(Nc2ccc3ncc(-c4cnn(CCCN5CCOCC5)c4)cc3n2)c1 [Example 0501] | 1 to 10 | 1 to 10 | –
CC(C)c1cnnc(Nc2ccc3ncc(-c4cnn(CC(F)F)c4)cc3n2)c1 [Example 0467] | < 1 | < 1 | –
CC(C)c1cnnc(Nc2ccc3ncc(-c4ccnn4C)cc3n2)c1 [Example 0758] | < 1 | 1 to 10 | –
CC(=O)Nc1ccc(Cn2cc(-c3cnc4ccc(Nc5cc(C(C)C)cnn5)nc4c3)cn2)cc1 [Example 0470, N-(4-((4-(6-((5-isopropylpyridazin-3-yl)amino)-1,5-naphthyridin-3-yl)-1H-pyrazol-1-yl)methyl)phenyl)acetamide] | < 1 | < 1 | –
CCCOC1CN(CCCn2cc(-c3cnc4ccc(Nc5cc(C(C)C)cnn5)nc4c3)cn2)C1 [Example 0706] | < 1 | < 1 | –
CC(=O)N1CCN(CCCn2cc(-c3cnc4ccc(Nc5cc(C(C)C)cnn5)nc4c3)cn2)CC1 [Example 0434] | < 1 | < 1 | –
CC(C)c1cnnc(Nc2ccc3ncc(-c4cnn(CC5CCCCC5)c4)cc3n2)c1 [Example 0519, 7-(1-(Cyclohexylmethyl)-1H-pyrazol-4-yl)-N-(5-isopropylpyridazin-3-yl)-1,5-naphthyridine-2-amine] | < 1 | 1 to 10 | –
CC(C)c1cnnc(Nc2ccc3ncc(-c4cnn(C[C@H]5CCC(=O)N5C)c4)cc3n2)c1 [Example 0568] | < 1 | < 1 | –
CC(C)NC(=O)N1CCC(Cn2cc(-c3cnc4ccc(Nc5cc(C(C)C)cnn5)nc4c3)cn2)CC1 [Example 0544] | < 1 | < 1 | –
CC(C)c1cnnc(Nc2ccc3ncc(-c4cnn(CCCN5CC6(CCO6)C5)c4)cc3n2)c1 [Example 0704, 7-(1-(3-(1-Oxa-6-azaspiro[3.3]heptan-6-yl)propyl)-1H-pyrazol-4-yl)-N-(5-isopropylpyridazin-3-yl)-1,5-naphthyridine-2-amine] | < 1 | < 1 | –
